# Reference: patent publication US20100286284A1, “5-[1'-(DECAHYDRO-7-HYDROXY-1,1,3A,7-TETRAMETHYL-1H-CYCLOPROPA[A]NAPHTHALEN-4-YL)-3'-METHYLBUTYL]-2,4,6-TRIHYDROXY-1,3-BENZENEDICARBOXALDEHYDE AS MEDICAMENTS” (Pierre Fabre Medicament, priority 2008, published 2010)
# Key:
# Type in all cases: biochemical
# Dopamine reuptake = assay: Reuptake of dopamine (DA), [3H]-DA uptake in synapses of rat striatum; details: in vitro, 15 min at 37° C.
# Description: (§1) The uptake tests were carried out in vitro on rat synapses.
# Following incubation, the samples are rapidly filtered in vacuo through glass fibre filters (GB/B, Packard) and rinsed twice with ice-cold incubation buffer to eliminate free [^3H]-dopamine. The filters are dried and the radioactivity retained is measured by a scintillation counter (Topcount, Packard) using a scintillation cocktail (Microscint O, Packard).
# (§2) The results are expressed as a percentage inhibition of the reuptake of the neurotransmitter evaluated.
# Serotonin reuptake = assay: Reuptake of serotonin (5-HT), [3H]-serotonin uptake in rat brain synapses; details: in vitro, synapses from rats' brains, 15 min at 37° C.
# Description: as §1
# The basal activity is determined by incubating the same mixture for 15 min at 37° C. in the presence of 10 μM imipramine to block the reuptake.
# Following incubation, the samples are rapidly filtered in vacuo through glass fibre filters (GB/B, Packard) and rinsed twice with ice-cold incubation buffer to eliminate free [^3H]-serotonin. The filters are dried and the radioactivity retained is measured by a scintillation counter (Topcount, Packard) using a scintillation cocktail (Microscint O, Packard).
# as §2
# Noradrenaline reuptake = assay: Reuptake of noradrenaline (NE), [3H]-NE uptake in synapses of rat hypothalamus; details: in vitro, 20 min at 37° C.
# Description: as §1
# The basal activity is determined by incubating the same mixture for 20 min at 37° C. in the presence of 10 μM of protriptyline to block the reuptake.
# Following incubation, the samples are rapidly filtered in vacuo through glass fibre filters (GB/B, Packard) and rinsed twice with ice-cold incubation buffer to eliminate free [^3H]-NE. The filters are dried and the radioactivity retained is measured by a scintillation counter (Topcount, Packard) using a scintillation cocktail (Microscint O, Packard).
# as §2
Compound,IC50 Dopamine reuptake (Dopamine reuptake),IC50 Serotonin reuptake (Serotonin reuptake),IC50 Noradrenaline reuptake (Noradrenaline reuptake)
CC(C)C[C@@H](c1c(O)c(C=O)c(O)c(C=O)c1O)[C@@H]1CC[C@@](C)(O)[C@@H]2[C@@H]3C(CC[C@]21C)C3(C)C (stereo partly drawn) [Macrocarpal L],1.0 μg/ml of solution,1.8 μg/ml of solution,3.1 μg/ml of solution
Hyperforin,0.23 μg/ml of solution,0.89 μg/ml of solution,0.79 μg/ml of solution
